In patent US12558342B2, “2-[2-({12,12-dimethyl-4-oxo-6-phenyl-3,11-dioxatricyclo[8.4.0.0,2,7]tetradeca-1,5,7,9-tetraen-8-yl}oxy)acetamido]benzamide and derivatives as inhibitor of clock:bmal1 interaction for the treatment of circadian rhythm diseases and disorders” (KOC UNIVERSITESI, priority 2019, dated 2026):

Legend:
CLOCK, BMAL1 and CRY1 = assay: In vivo study in mouse liver, Western blot; conditions: 25 mg/kg i.p., 6 h
Protocol: Male C57BL/6J mice, 8 weeks of age, weighing 18-24 g were treated with two different single doses of CLK8 (25 mg/kg n=5 per each dose) intraperitoneally. Control mice (n=3) were only treated with vehicle (DMSO:Cremophor EL: 0.9% NaCl; 2.5:15:82.5, v/v, i.p.). Water and food were provided ad libitum throughout the experiments. Six hours after injection, mice were sacrificed by cervical dislocation. Liver tissues were removed, frozen in liquid nitrogen and stored at −80° C. until further processing.

CLOCK = target: T1, CLOCK (Homo sapiens, UniProt O15516); assay: LC-MS/MS of pull-down precipitates, CLOCK; type: binding; design: expressed in transfected cells; host or cells: HEK293T
T1 sequence (O15516 1-846): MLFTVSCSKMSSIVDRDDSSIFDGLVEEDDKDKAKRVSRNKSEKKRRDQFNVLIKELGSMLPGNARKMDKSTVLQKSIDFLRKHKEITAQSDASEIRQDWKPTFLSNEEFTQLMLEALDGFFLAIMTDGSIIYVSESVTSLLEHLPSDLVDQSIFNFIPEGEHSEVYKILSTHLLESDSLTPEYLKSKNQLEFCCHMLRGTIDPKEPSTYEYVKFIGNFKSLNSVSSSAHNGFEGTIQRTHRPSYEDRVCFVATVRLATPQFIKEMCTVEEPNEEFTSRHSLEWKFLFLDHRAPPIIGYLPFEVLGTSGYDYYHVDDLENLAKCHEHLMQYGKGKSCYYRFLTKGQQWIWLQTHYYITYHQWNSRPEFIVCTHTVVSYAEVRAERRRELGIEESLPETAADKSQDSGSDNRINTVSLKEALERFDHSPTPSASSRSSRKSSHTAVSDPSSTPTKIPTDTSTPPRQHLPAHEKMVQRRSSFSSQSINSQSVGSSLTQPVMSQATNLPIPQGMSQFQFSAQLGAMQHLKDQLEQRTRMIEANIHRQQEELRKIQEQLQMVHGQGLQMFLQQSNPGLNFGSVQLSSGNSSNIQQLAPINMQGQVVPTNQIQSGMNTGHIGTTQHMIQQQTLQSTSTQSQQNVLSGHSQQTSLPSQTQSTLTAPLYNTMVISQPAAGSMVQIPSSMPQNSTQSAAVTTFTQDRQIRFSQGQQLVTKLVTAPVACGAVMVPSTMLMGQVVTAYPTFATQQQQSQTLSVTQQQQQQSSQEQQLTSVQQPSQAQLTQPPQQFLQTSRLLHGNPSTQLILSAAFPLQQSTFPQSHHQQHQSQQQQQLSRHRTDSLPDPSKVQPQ
Protocol: HEK293T cells were transiently transfected with tag-free hsClock and mBmal1. After 48 hours of transfection, cells were harvested and whole cell lysate was prepared with ice-cold lysis buffer (50 mM Tris-HCl pH 7.4, 2 mM EDTA, 1 mM MgCl2, 0.2% NP-40, 1 mM sodium orthovanadate, 1 mM sodium fluoride and protease inhibitor cocktail) followed by centrifugation at 7000×g at 4° C. for 10 minutes. Lysate was diluted with ice-cold 2× binding buffer (100 mM Tris-HCl pH 7.4, 300 mM NaCl, 0.2% NP-40, 2 mM sodium orthovanadate, 2 mM sodium fluoride, and protease inhibitor cocktail) 27. The lysate was divided into three fractions to be treated with either DMSO, or 20 μM of bitoinylated-CLK8 (bait) with or without 200 μM CLK8 (competitor). […]
The next step was to check for off-targets of CLK8. […] Since the amount of precipitated endogenous CLOCK was insufficient to be detected in LC-MS/MS, whole cell lysate of HEK 293T cells overexpressing CLOCK and BMAL1 were used for LC-MS/MS. We determined proteins that potentially bind to CLK8 by utilizing a minimum threshold for peptide spectrum matches and coverage equal to those of the main target, CLOCK. We also excluded proteins that have been detected in negative controls of the CRAPome database (32), assuming them as abundant sticky proteins. […] BMAL1 was detected in lower amounts when a competitor was present. […]

Structure (SMILES): CC1(C)CCc2c(cc(OCC(=O)Nc3ccccc3C(N)=O)c3c(-c4ccccc4)cc(=O)oc23)O1 [CLK8, 2-[2-({12,12-dimethyl-4-oxo-6-phenyl-3,11-dioxatricyclo [8.4.0.0,2,7]tetradeca-1,5,7,9-tetraen-8-yl}oxy)acetamido] benzamide]
- CLOCK abundance in the nucleus (liver) (CLOCK, BMAL1 and CRY1): significantly low
- CLOCK levels in whole liver cell lysate (CLOCK, BMAL1 and CRY1): decrease
- cytosolic and nuclear BMAL1 and CRY1 (liver) (CLOCK, BMAL1 and CRY1): unaltered
- levels of BMAL1 and CRY1 in whole liver cell lysate (CLOCK, BMAL1 and CRY1): unaltered
- Peptide spectrum matches, CLOCK (CLOCK; Competitor 0 μM): 42
- Peptide spectrum matches, CLOCK (CLOCK; Competitor 200 μM): not detected
